These results are taken from patent publication US20220023271A1, “COMPOSITION FOR PREVENTING OR TREATING CELLULAR SENESCENCE-RELATED DISEASES COMPRISING ZOTAROLIMUS AS ACTIVE INGREDIENT” (RESEARCH COOPERATION FOUNDATION OF YEUNGNAM UNIVERSITY, priority 2018, published 2022).

Assay [1] concerns human umbilical vascular endothelial cells (HUVEC). Nature of the assay: CCK-8 cell growth analysis in vascular endothelial cells. It counts as cell-based. How it is done:
Each cell was treated in a serum-free culture solution containing 0.5 μM doxorubicin for 4 hours. After washing the cells with a serum-free culture solution, the cells were cultured for 4 days in a culture solution containing 10% FBS, and then cellular aging was confirmed by staining with senescence-associated beta galactosidase (SAβG). After dispensing 2×10^5 cells in a 100 mm culture dish, they were cultured in a 37° C., 5% CO2 incubator. When the cells grew to 80-90% in the culture dish, the cells were removed by treatment with trypsin-EDTA, and the number of cells was measured, and the cell population doubling time (PDT) was measured. After each sample was dissolved in DMSO, young cells, replicative senescent cells, and premature senescent cells treated with doxorubicin were treated with 100 nM zotarolimus, 100 nM rapamycin, 100 nM ABT263, respectively. […] Then, the absorbance was measured at 450 nm using a microplate reader. The degree of cell growth was expressed as a relative value for the absorbance of the control group treated with only DMSO as 100%. […]

Assay [2] relates to human tubular epithelial cell (HK2). Kind of assay: SAβG activity staining in premature senescent HK2 cells. The format is cell-based. To be noted: premature senescent HK2 cells by doxorubicin; 100 nM, 4 days. The protocol: Each cell was treated in a serum-free culture solution containing 0.5 μM doxorubicin for 4 hours. After washing the cells with a serum-free culture solution, the cells were cultured for 4 days in a culture solution containing 10% FBS, and then cellular aging was confirmed by staining with senescence-associated beta galactosidase (SAβG). After each sample was dissolved in DMSO, young cells, replicative senescent cells, and premature senescent cells treated with doxorubicin were treated with 100 nM zotarolimus, 100 nM rapamycin, 100 nM ABT263, respectively. After incubation for 4 days in a 37° C., 5% CO2 incubator, the degree of cell growth was confirmed by CCK-8 analysis, the degree of cellular aging was confirmed by senescence-related beta-galactosidase (SAβG) staining, The cells were washed with 1× phosphate buffer solution, and fixed with a phosphate buffer solution containing 3.7% (v/v) paraformaldehyde. After adding 1 mg/ml 5-bromo-4-chloro-3-indolyl-6-D-galactoside, 40 mM citric acid-sodium phosphate (pH 6.0), 5 mM potassium ferricyanide, 5 mM potassium ferrocyanide, 150 mM NaCl, and 2 mM MgCl2 solution, it was reacted at 37° C. for 18 hours. It was stained with eosin as a control stain. Cells stained blue in the cytoplasm were identified using an optical microscope. […]

Assay [3] concerns peritoneal fibrosis induced by CHG. Kind of assay: Peritoneal fibrosis induced by chlorhexidine gluconate (CHG) in mice. To be noted: i.p. at 2-day intervals from 9th day; vs DMSO group. It counts as in vivo, C57BL/6J mice. The protocol: Animal experiments were conducted with the approval of the Animal Experimental Ethics Committee of Yeungnam University College of Medicine (YUMC-AEC2018-033). Peritoneal fibrosis mice experiments were performed using a model of peritoneal fibrosis induced by chlorhexidine gluconate (CHG) (Yoshio Y et al., Kidney international. 2004).
From the 9th day, 2.5 μl of 10 mM zotarolimus (Zota group) or 2.5 μl of DMSO (DMSO group) was diluted in 100 μl phosphate buffer solution and intraperitoneally injected at intervals of 2 days.
As a negative control (NT group), 100 μl of a 15% ethanol phosphate buffer solution was injected intraperitoneally instead of a 0.1% CHG solution. On the 20th day, the mice were sacrificed, the peritoneal tissue was excised, and the tissue was fixed in 4% paraformaldehyde solution.
The tissue fixed in 10% formalin solution was embedded with paraffin and cut into 4 μm to prepare a tissue sample. After removing paraffin from the tissue sample, hematoxylin-eosin staining, trichrome staining, and PAS staining were performed.
The degree of fibrosis was measured by analyzing the degree of collagen staining using the i-Solution™ software program (IMT Inc., Canada) after trichrome staining and the degree of cell senescence in tissue samples was investigated by staining lipofuscin with Sudan black B (Viegas M S, et al., European journal of histochemistry: EJH. 2007). […]

For the compound `CO[C@H]1C[C@@H]2CC[C@@H](C)[C@@](O)(O2)C(=O)C(=O)N2CCCC[C@H]2C(=O)O[C@H]([C@H](C)C[C@@H]2CC[C@H](n3cnnn3)[C@H](OC)C2)CC(=O)[C@H](C)/C=C(\C)[C@@H](O)[C@@H](OC)C(=O)[C@H](C)C[C@H](C)/C=C/C=C/C=C/1C` [zotarolimus], the “cell growth (CCK-8)” value in assay [1] (premature senescent HUVEC by doxorubicin, 100 nM, 4 days, vs DMSO, p<0.01) is “significantly reduced”. The “cell growth with increasing concentration of zotarolimus” value in assay [1] (young vs replicative senescent HUVEC) is given as “decreased compared to the young cells in a concentration-dependent manner”. Also, in assay [2], the SAβG staining entry is on record as “decreased”. For the same compound, in assay [3], the “degree of fibrosis (peritoneal)” value was “decreased” and the “thickness of the peritoneal mesothelial cell layer” value is “significantly reduced”.
